From PubChem BioAssay AID330 (DTP/NCI, 2004)
Where “and” joins values, the source holds several entries; their conditions need not be identical. Equal entries are not always repeated. Inconclusive results and toxic doses are left out.

Test system: P388 leukemia ip, CD2F1 mice, survival T/C
Assay: NCI In Vivo Anticancer Drug Screen. Data for tumor model P388 Leukemia (intraperitoneal) in CD2F1 (CDF1) mice
Conditions: endpoint: median survival time, higher = longer survival
Summary of the method: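 Mice carrying the transplanted tumor received test compound or vehicle. Survival was recorded in each group, and the value is the treated-group measurement divided by that of the vehicle-treated control group.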

[1] = dose: 100.0 mg/kg/injection, schedule: Q01DX009 (ip), vehicle: saline
[2] = dose: 200.0 mg/kg/injection, schedule: Q01DX009 (ip), vehicle: saline
[3] = dose: 50.0 mg/kg/injection, schedule: Q01DX005 (ip), vehicle: Klucel (hydroxypropylcellulose) (HPC)
[4] = dose: 100.0 mg/kg/injection, schedule: Q01DX005 (ip), vehicle: Klucel (hydroxypropylcellulose) (HPC)
[5] = dose: 200.0 mg/kg/injection, schedule: Q01DX005 (ip), vehicle: Klucel (hydroxypropylcellulose) (HPC)
[6] = dose: 50.0 mg/kg/injection, schedule: Q01DX009 (ip), vehicle: saline with Tween-80
[7] = dose: 100.0 mg/kg/injection, schedule: Q01DX009 (ip), vehicle: saline with Tween-80
[8] = dose: 200.0 mg/kg/injection, schedule: Q01DX009 (ip), vehicle: saline with Tween-80
[9] = dose: 25.0 mg/kg/injection, schedule: Q01DX009 (ip), vehicle: saline with Tween-80
[10] = dose: 400.0 mg/kg/injection, schedule: Q01DX009 (ip), vehicle: saline
[11] = dose: 50.0 mg/kg/injection, schedule: Q01DX005 (ip), vehicle: saline with Tween-80
[12] = dose: 100.0 mg/kg/injection, schedule: Q01DX005 (ip), vehicle: saline with Tween-80
[13] = dose: 200.0 mg/kg/injection, schedule: Q01DX005 (ip), vehicle: saline with Tween-80

SMILES: COc1ccc2c(O)c(S(=O)(=O)c3ccc(Cl)cc3)c(=O)oc2c1
- T/C (dose: 60.0 mg/kg/injection, schedule: Q01DX005 (ip), vehicle: saline with Tween-80): 102 % of control
- T/C (dose: 120.0 mg/kg/injection, schedule: Q01DX005 (ip), vehicle: saline with Tween-80): 112 % of control
- T/C (dose: 240.0 mg/kg/injection, schedule: Q01DX005 (ip), vehicle: saline with Tween-80): 102 % of control

SMILES: OCc1ncccc1O
- T/C (dose: 25.0 mg/kg/injection, schedule: Q01DX009 (ip), vehicle: saline): 99 % of control and 109 % of control
- T/C (dose: 50.0 mg/kg/injection, schedule: Q01DX009 (ip), vehicle: saline): 108 % of control and 100 % of control and 106 % of control
- T/C [1]: 90 % of control and 102 % of control and 104 % of control
- T/C [2]: 110 % of control and 111 % of control and 97 % of control

SMILES: COc1cccc2c1CCC1=CC(=O)CCC12C (centres undefined)
- T/C [3]: 102 % of control
- T/C [4]: 96 % of control
- T/C [5]: 93 % of control

SMILES: NC(=O)NC(c1ccccc1)C(O)(c1ccccc1)c1ccccc1 (centres undefined)
- T/C [6]: 87 % of control
- T/C [7]: 93 % of control
- T/C [8]: 96 % of control

SMILES: OCC1OC(n2cnc3cc(Cl)c(Cl)cc32)C(O)C1O (centres undefined)
- T/C (dose: 8.0 mg/kg/injection, schedule: Q03HX024 (ip), vehicle: saline with Tween-80): 96 % of control
- T/C (dose: 16.0 mg/kg/injection, schedule: Q03HX024 (ip), vehicle: saline with Tween-80): 99 % of control
- T/C (dose: 20.0 mg/kg/injection, schedule: Q04DX003 (ip), vehicle: other): 95 % of control
- T/C (dose: 20.0 mg/kg/injection, schedule: Q04DX003 (oral), vehicle: other): 103 % of control
- T/C [9]: 93 % of control
- T/C (dose: 32.0 mg/kg/injection, schedule: Q03HX024 (ip), vehicle: saline with Tween-80): 114 % of control and 116 % of control
- T/C (dose: 40.0 mg/kg/injection, schedule: Q04DX003 (ip), vehicle: other): 100 % of control
- T/C (dose: 40.0 mg/kg/injection, schedule: Q04DX003 (oral), vehicle: other): 100 % of control
- T/C [6]: 106 % of control
- T/C (dose: 80.0 mg/kg/injection, schedule: Q04DX003 (ip), vehicle: other): 95 % of control
- T/C (dose: 80.0 mg/kg/injection, schedule: Q04DX003 (oral), vehicle: other): 103 % of control
- T/C [7]: 123 % of control
- T/C (dose: 160.0 mg/kg/injection, schedule: Q04DX003 (ip), vehicle: other): 110 % of control
- T/C (dose: 160.0 mg/kg/injection, schedule: Q04DX003 (oral), vehicle: other): 100 % of control
- T/C [8]: 160 % of control
- T/C (dose: 320.0 mg/kg/injection, schedule: Q04DX003 (ip), vehicle: other): 119 % of control
- T/C (dose: 320.0 mg/kg/injection, schedule: Q04DX003 (oral), vehicle: other): 107 % of control
- T/C (dose: 640.0 mg/kg/injection, schedule: Q04DX003 (oral), vehicle: other): 100 % of control

SMILES: COc1ccc2c(c1OC)CCN1C3=C(CC(OC(=O)c4ccccc4)CC3)C(=O)CC21 (centres undefined)
- T/C (dose: 100.0 mg/kg/injection, schedule: Q01DX001 (ip), vehicle: saline sonified): 100 % of control
- T/C (dose: 200.0 mg/kg/injection, schedule: Q01DX001 (ip), vehicle: saline sonified): 110 % of control
- T/C (dose: 400.0 mg/kg/injection, schedule: Q01DX001 (ip), vehicle: saline sonified): 110 % of control

SMILES: CC(=O)Nc1ccc(OCCCN2CCOCC2)cc1
- T/C (dose: 100.0 mg/kg/injection, schedule: Q04DX002 (ip), vehicle: Klucel (hydroxypropylcellulose) (HPC)): 102 % of control
- T/C (dose: 200.0 mg/kg/injection, schedule: Q04DX002 (ip), vehicle: Klucel (hydroxypropylcellulose) (HPC)): 101 % of control
- T/C (dose: 400.0 mg/kg/injection, schedule: Q04DX002 (ip), vehicle: Klucel (hydroxypropylcellulose) (HPC)): 95 % of control

SMILES: CCC[CH2][Sn]([CH2]CCC)([NH]c1ncnc2[nH]cnc12)[NH]c1ncnc2[nH]cnc12
- T/C (dose: 1.56 mg/kg/injection, schedule: Q01DX005 (ip), vehicle: Klucel (hydroxypropylcellulose) (HPC)): 98 % of control
- T/C (dose: 3.12 mg/kg/injection, schedule: Q01DX005 (ip), vehicle: Klucel (hydroxypropylcellulose) (HPC)): 110 % of control
- T/C (dose: 6.25 mg/kg/injection, schedule: Q01DX005 (ip), vehicle: Klucel (hydroxypropylcellulose) (HPC)): 121 % of control

SMILES: Cc1ccc(OP(=O)(Oc2ccc(C)cc2)Oc2ccc(C)cc2)cc1.Cc1ccc(OP(=O)(Oc2ccc(C)cc2)Oc2ccc(C)cc2)cc1.Cc1ccc(OP(=O)(Oc2ccc(C)cc2)Oc2ccc(C)cc2)cc1.Cc1ccc(OP(=O)(Oc2ccc(C)cc2)Oc2ccc(C)cc2)cc1.[Fe+2].[O-][Cl+3]([O-])([O-])O
- T/C (dose: 50.0 mg/kg/injection, schedule: Q01DX001 (ip), vehicle: Klucel (hydroxypropylcellulose) (HPC)): 99 % of control
- T/C (dose: 100.0 mg/kg/injection, schedule: Q01DX001 (ip), vehicle: Klucel (hydroxypropylcellulose) (HPC)): 96 % of control
- T/C (dose: 200.0 mg/kg/injection, schedule: Q01DX001 (ip), vehicle: Klucel (hydroxypropylcellulose) (HPC)): 99 % of control

SMILES: Cc1ccc(N2CC=C(c3ccccc3)OP2(=O)N2CC2)cc1 (centres undefined)
- T/C [3]: 101 % of control
- T/C [4]: 101 % of control
- T/C [5]: 94 % of control

SMILES: NC1CCCCCCC1O (centres undefined)
- T/C (dose: 5.0 mg/kg/injection, schedule: Q01DX009 (ip), vehicle: saline with Tween-80): 104 % of control
- T/C (dose: 5.0 mg/kg/injection, schedule: Q04DX003 (ip), vehicle: saline): 104 % of control
- T/C (dose: 10.0 mg/kg/injection, schedule: Q01DX009 (ip), vehicle: saline with Tween-80): 100 % of control
- T/C (dose: 10.0 mg/kg/injection, schedule: Q04DX003 (ip), vehicle: saline): 100 % of control
- T/C (dose: 20.0 mg/kg/injection, schedule: Q01DX009 (ip), vehicle: saline with Tween-80): 104 % of control
- T/C (dose: 20.0 mg/kg/injection, schedule: Q04DX003 (ip), vehicle: saline): 100 % of control

SMILES: CN(C)CCCN=c1c2ccccc2n(C)c2[nH]c(=O)n(C)c(=O)c12
- T/C (dose: 7.5 mg/kg/injection, schedule: Q01DX005 (ip), vehicle: saline): 107 % of control
- T/C (dose: 15.0 mg/kg/injection, schedule: Q01DX005 (ip), vehicle: saline): 124 % of control
- T/C (dose: 60.0 mg/kg/injection, schedule: Q01DX005 (ip), vehicle: saline): 123 % of control

SMILES: CCn1c2ccccc2c2cc(/C=N/Nc3cc(C)nc4cc5c(cc34)OCO5)ccc21
- T/C [3]: 100 % of control
- T/C [4]: 89 % of control

SMILES: Cc1nc2[nH]c(=O)ccc2c(C)c1N
- T/C (dose: 25.0 mg/kg/injection, schedule: Q04DX002 (ip), vehicle: saline with Tween-80): 103 % of control
- T/C (dose: 50.0 mg/kg/injection, schedule: Q04DX002 (ip), vehicle: saline with Tween-80): 110 % of control
- T/C (dose: 100.0 mg/kg/injection, schedule: Q04DX002 (ip), vehicle: saline with Tween-80): 100 % of control

SMILES: O=C(NCc1ccccc1)c1cccnc1
- T/C [1]: 100 % of control
- T/C [2]: 98 % of control
- T/C [10]: 100 % of control

SMILES: O=C(O)C(/N=N\c1nn[nH]n1)/N=N\c1ncn[nH]1 (centres undefined)
- T/C (dose: 100.0 mg/kg/injection, schedule: Q04DX003 (ip), vehicle: Klucel (hydroxypropylcellulose) (HPC)): 102 % of control
- T/C (dose: 200.0 mg/kg/injection, schedule: Q04DX003 (ip), vehicle: Klucel (hydroxypropylcellulose) (HPC)): 108 % of control
- T/C (dose: 400.0 mg/kg/injection, schedule: Q04DX003 (ip), vehicle: Klucel (hydroxypropylcellulose) (HPC)): 101 % of control

SMILES: CCCCCCC(=O)/C=C/c1ccccc1OC(=O)/C=C/c1ccccc1
- T/C (dose: 50.0 mg/kg/injection, schedule: Q01DX005 (ip), vehicle: saline + alcohol): 96 % of control
- T/C (dose: 100.0 mg/kg/injection, schedule: Q01DX005 (ip), vehicle: saline + alcohol): 92 % of control

SMILES: CNCCc1ccc(O)c(O)c1
- T/C [1]: 108 % of control and 118 % of control
- T/C [2]: 111 % of control and 98 % of control
- T/C [10]: 116 % of control and 90 % of control

SMILES: O=[N+]([O-])O.O=[N+]([O-])O.[NH-]C1CCCC1[NH-].[Pt+2] (centres undefined)
- T/C (dose: 6.25 mg/kg/injection, schedule: Q04DX002 (ip), vehicle: saline): 180 % of control
- T/C (dose: 12.5 mg/kg/injection, schedule: Q04DX002 (ip), vehicle: saline): 180 % of control
- T/C (dose: 12.5 mg/kg/injection, schedule: Q04DX002 (ip), vehicle: suspension in saline): 184 % of control
- T/C (dose: 25.0 mg/kg/injection, schedule: Q04DX002 (ip), vehicle: saline): 197 % of control
- T/C (dose: 25.0 mg/kg/injection, schedule: Q04DX002 (ip), vehicle: suspension in saline): 202 % of control

SMILES: CC1(C)OC(=O)C=C1Sc1ccccc1
- T/C [11]: 100 % of control
- T/C [12]: 105 % of control
- T/C [13]: 105 % of control

SMILES: COc1ccc(/C=C2/Oc3c(OC)c(OC)cc(OC)c3C2=O)cc1
- T/C [11]: 102 % of control
- T/C [12]: 98 % of control
- T/C [13]: 98 % of control

SMILES: CS(=O)(=O)c1cc(C(F)(F)F)cc([N+](=O)[O-])c1Cl
- T/C [9]: 109 % of control
- T/C [6]: 100 % of control
